Experimental data published in paper PMC12636295 (bioRxiv, 2025).

Target: T1, SCP2 (human sterol carrier protein 2) (Homo sapiens, UniProt P22307)
T1 sequence (P22307 425-547): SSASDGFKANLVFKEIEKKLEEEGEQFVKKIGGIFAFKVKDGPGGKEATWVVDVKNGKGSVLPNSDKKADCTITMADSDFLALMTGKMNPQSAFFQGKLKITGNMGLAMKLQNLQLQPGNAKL
Assay: NBD-SA fluorescence displacement titration
Format: binding

A Ki of 8.4 ± 0.6 µM was found for `O=C(O)C(F)(F)C(F)(F)C(F)(F)C(F)(F)C(F)(F)C(F)(F)C(F)(F)C(F)(F)C(F)(F)C(F)(F)C(F)(F)C(F)(F)C(F)(F)C(F)(F)C(F)(F)F` [PFHxDA] in this work.
